Where two headings read alike, the source gives them in different places. Marks after values point to notes of the source that are not given here. Each block holds one compound with its values, some of them ahead of it.
Columns and labels:
[1] = tested on: Mes-Sa-B1 cells (Pgp overexpressing); assay: Fluorescence-based cytotoxicity assay, Mes-Sa-B1 mOr; settings: for SR (Mes-Sa-B1): selectivity ratio = IC50 parental Mes-Sa / IC50 Mes-Sa-B1
Procedure: (§1) After the transduction, cell lines were tested by flow cytometry and were sorted based on transporter expression/function, and in the case of the OATP2B1-expressing cell line, on CD4 protein expression. Parental, SLCO2B1, ABCG2 and ABCB1 overexpressing cell lines were transduced with the fluorescent protein expressing lentiviral supernatants produced with pRRL-EF1-mCherry, -mOrange or -eGFP expression plasmid in a second round of transduction. Mes-Sa/Dx5-eGFP cells were repeatedly cultured in 500 nM doxorubicin to ensure homogenous expression of Pgp. […] Functional expression of ABCB1 and ABCG2 was regularly checked with cytotoxicity assays using mitoxantrone in the absence or presence of tariquidar.
(§2) All experiments were performed using a robotic pipetting workstation (Hamilton Robotics STAR Let). Cells were seeded at a final cell density of 1875 cells per well in 384-well plates in the triple co-culture (625 cells from each lines) and at 2500 cells per well in the A431 control and A431-2B1 co-culture (1250 cells from both) systems. Co-cultured cells were incubated for 24 h at 37 °C and 5% CO2 under humidified atmosphere prior to the addition of drugs. […] Data were exported to a custom-made program for determining growth inhibition curves for each cell line.
(§3) In the primary screening, IC50 was estimated by the intercept of the linear regression fitted on nearest values. In the confirmatory screening, IC50 values were obtained by sigmoidal curve fitting using the GraphPad Prism software. […] The Resistance Ratio (RR) was calculated by dividing the IC50 values measured against the multidrug resistant, transporter-expressing derivative by the cytotoxicity measured in the parental cell line; the Selectivity Ratio (SR) is the inverse of RR.

Mes-Sa/Dx5 cells = assay: Fluorescence-based cytotoxicity assay, Mes-Sa/Dx5 eGFP; settings: triple co-culture screen; for RR (Dx5): resistance ratio = IC50 Mes-Sa/Dx5 / IC50 parental Mes-Sa; for SR (Mes-Sa/DX5): selectivity ratio = IC50 parental Mes-Sa / IC50 Mes-Sa/Dx5
Procedure: as §1, §2, §3

[2] = tested on: A431-B1 cells (ABCB1/P-glycoprotein expressing); assay: Fluorescence-based cytotoxicity assay, ABCB1-expressing A431-B1 mCh
Procedure: All cell lines were cultured at 37 °C, 5% CO2, in Dulbecco’s Modified Eagle’s Medium (DMEM, SigmaAldrich, 52100047), supplemented with 10% FBS, 2 mM L-glutamine and 100 units/mL penicillin and 100 µg/mL streptomycin (ThermoFisher).
as §2
In the primary screening, IC50 was estimated by the intercept of the linear regression fitted on nearest values. In the confirmatory screening, IC50 values were obtained by sigmoidal curve fitting using the GraphPad Prism software. […] The Resistance Ratio (RR) was calculated by dividing the IC50 values measured against the multidrug resistant, transporter-expressing derivative by the cytotoxicity measured in the parental cell line; the Selectivity Ratio (SR) is the inverse of RR. Differences were considered to be biologically relevant at RR > 3 or SR > 3.

[3] = tested on: A431-G2 cells (ABCG2 expressing); assay: Fluorescence-based cytotoxicity assay, ABCG2-expressing A431-G2 mOr; settings: triple co-culture, result in words
Procedure: as §1, §2, §3

OATP2B1 [4] = target: T1, OATP2B1 (Homo sapiens, UniProt O94956); assay: Inhibition of OATP2B1-mediated Cascade Blue uptake (microplate-based uptake assay, A431-2B1 cells)
T1 sequence (O94956 1-709): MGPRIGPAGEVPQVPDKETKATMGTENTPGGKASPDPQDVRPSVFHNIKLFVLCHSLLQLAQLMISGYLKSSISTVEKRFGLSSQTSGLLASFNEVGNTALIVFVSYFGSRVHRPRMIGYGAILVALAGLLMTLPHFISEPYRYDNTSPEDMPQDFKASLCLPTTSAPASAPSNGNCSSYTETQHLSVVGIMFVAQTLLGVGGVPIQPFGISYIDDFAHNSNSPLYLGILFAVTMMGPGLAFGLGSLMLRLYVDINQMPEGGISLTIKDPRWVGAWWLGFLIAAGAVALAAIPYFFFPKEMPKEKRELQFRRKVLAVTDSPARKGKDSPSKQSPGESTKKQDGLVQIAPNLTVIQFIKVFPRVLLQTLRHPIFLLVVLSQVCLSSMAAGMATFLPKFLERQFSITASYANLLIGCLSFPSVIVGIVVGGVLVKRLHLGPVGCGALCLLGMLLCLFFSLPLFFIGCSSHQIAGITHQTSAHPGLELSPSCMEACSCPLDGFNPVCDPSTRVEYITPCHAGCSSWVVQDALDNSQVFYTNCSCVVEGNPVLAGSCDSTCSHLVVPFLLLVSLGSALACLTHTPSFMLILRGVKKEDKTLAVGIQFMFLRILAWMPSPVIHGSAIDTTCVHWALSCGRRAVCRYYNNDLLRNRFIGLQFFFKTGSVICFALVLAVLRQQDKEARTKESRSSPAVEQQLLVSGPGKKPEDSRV
Procedure: OATP-expressing A431 cells were seeded (7 × 10^4 cells in 200 µl final volume/well) onto 96-well plates and cultured for 16–24 h at 37 °C, 5% CO2. After reaching confluence, the supernatant was removed and the cells were washed three-times with 200 µl of phosphate-buffered saline (PBS). The cells were preincubated in the presence of the compounds for 5 min at 37 °C. The amount of solvent was kept below 0.5% throughout the study to avoid interference with the fluorescence of the dyes. The reaction was started with the addition of 50 µl Cascade Blue fluorescent dye (10 µM final concentration in a final volume of 100 µl) and the plate was incubated at 37 °C for 30 min (Patik et al. [2018]). The reaction was stopped by the addition of 200 µl ice-cold PBS. The supernatant was rapidly removed, and the cells were washed three-times with 200 µl ice-cold PBS. Finally, 200 µl PBS was added to the cells and fluorescence was measured at room temperature using an EnSpire fluorescent plate reader (Perkin Elmer) at wavelengths 401ex/419em nm.

A431 cells = assay: Fluorescence-based cytotoxicity assay, parental A431 eGFP
Procedure: as §1, §2, §3

[5] = tested on: A431-2B1 cells (OATP2B1 expressing); assay: Fluorescence-based cytotoxicity assay, OATP2B1-expressing A431-2B1 mCh; settings: for IC50: 9 concentration points, at least 3 replicates
Procedure: as §1, §2, §3

OATP2B1 [6] = assay: as above; settings: human
Procedure: as §1, §2, §3

[7] = resistance ratio = IC50 Mes-Sa-B1 / IC50 parental Mes-Sa, triple co-culture screen
[8] = resistance ratio = IC50 A431B1 / IC50 parental A431, triple co-culture screen

Structure (SMILES): CC[C@]1(O)C[C@H]2CN(CCc3c([nH]c4ccccc34)[C@@](C(=O)OC)(c3cc4c(cc3OC)N(C=O)[C@H]3[C@@](O)(C(=O)OC)[C@H](OC(C)=O)[C@]5(CC)C=CCN6CC[C@]43[C@@H]65)C2)C1 [NSC-67574, Vincristine]
RR (Mes-Sa-B1) [1, 7]: 38.00
RR (Dx5) (Mes-Sa/Dx5 cells): 36.00
RR (A431B1) [2, 8]: 56.8

Structure (SMILES): S=c1[nH]cnc2nc[nH]c12 [NSC-755, Mercaptopurine]
SR (Mes-Sa-B1) ([1]; triple co-culture screen): 0.39
SR (Mes-Sa/DX5) (Mes-Sa/Dx5 cells): 3.87
Effect of ABCG2 expression on toxicity (A431-G2 vs parental A431) [3]: conferred resistance

IC50 (OATP2B1 [4]): 265 ± 31.4 µM
Structure (SMILES): CN(Cc1cnc2nc(N)nc(N)c2n1)c1ccc(C(=O)N[C@@H](CCC(=O)O)C(=O)O)cc1 [NSC-740, Methotrexate]
IC50 (A431 cells; Homo sapiens, A-431, read-out: IC50 (µM) A431 eGFP, co-culture): 0.38 µM
IC50 (A431 cells; Homo sapiens, A-431, read-out: IC50 (µM) A431 eGFP, monoculture): 0.43 µM
SR, co-culture ([5]; IC50 A431 eGFP / IC50 A4312B1 mCh, co-culture): 11.78^**
SR, monoculture ([5]; IC50 A431 eGFP / IC50 A4312B1 mCh, monoculture): 3.59^**
SR (A431-2B1 vs parental A431), screening of DTP Oncology Set IV ([5]; primary screen, co-culture, Fig. 4 inset): 9.00
IC50 at […] (OATP2B1 [6]): 0.03 µM
IC50 at […] (OATP2B1 [6]; A431-2B1 mCherry cells (OATP2B1-expressing), monoculture): 0.12 µM

Structure (SMILES): Nc1nc2[nH]cc(CCc3ccc(C(=O)N[C@@H](CCC(=O)O)C(=O)O)cc3)c2c(=O)[nH]1 [NSC-698037, Pemetrexed]
SR (Mes-Sa-B1) ([1]; triple co-culture screen): 1.14
SR (Mes-Sa/DX5) (Mes-Sa/Dx5 cells): 3.29

Structure (SMILES): CC(C)C[C@H](NC(=O)[C@H](Cc1ccccc1)NC(=O)c1cnccn1)B(O)O [bortezomib]
RR (Mes-Sa-B1) [1, 7]: 4.3
RR (Dx5) (Mes-Sa/Dx5 cells): 17
RR (A431B1) [2, 8]: 2.7

Structure (SMILES): C[C@@H](Oc1cc(-c2cnn(C3CCNCC3)c2)cnc1N)c1c(Cl)ccc(F)c1Cl [crizotinib]
RR (Mes-Sa-B1) [1, 7]: 9.9
RR (Dx5) (Mes-Sa/Dx5 cells): 21.3
RR (A431B1) [2, 8]: 2.6

Structure (SMILES): CS(=O)(=O)CCNCc1ccc(-c2ccc3ncnc(Nc4ccc(OCc5cccc(F)c5)c(Cl)c4)c3c2)o1 [lapatinib]
Effect of ABCG2 expression on toxicity (A431-G2 vs parental A431) [3]: conferred resistance

Structure (SMILES): Nc1nc2nc[nH]c2c(=S)[nH]1 [NSC-752, Thioguanine]
SR (Mes-Sa-B1) ([1]; triple co-culture screen): 0.41
SR (Mes-Sa/DX5) (Mes-Sa/Dx5 cells): 6.93

Structure (SMILES): CO[C@H]1C(=O)[C@]2(C)[C@@H](OC)C[C@H]3OC[C@@]3(OC(C)=O)[C@H]2[C@H](OC(=O)c2ccccc2)[C@]2(O)C[C@H](OC(=O)[C@H](O)[C@@H](NC(=O)OC(C)(C)C)c3ccccc3)C(C)=C1C2(C)C [NSC-761432, Cabazitaxel]
RR (Mes-Sa-B1) [1, 7]: 63.00
RR (Dx5) (Mes-Sa/Dx5 cells): > 107.00
RR (A431B1) [2, 8]: 6.00

Structure (SMILES): CC[C@]1(O)C[C@@H]2CN(CCc3c([nH]c4ccccc34)[C@@](C(=O)OC)(c3cc4c(cc3OC)N(C)[C@H]3[C@@](O)(C(=O)OC)[C@H](OC(C)=O)[C@]5(CC)C=CCN6CC[C@]43[C@@H]65)C2)C1 [NSC-49842, Vinblastine]
RR (Mes-Sa-B1) [1, 7]: 15.00
RR (Dx5) (Mes-Sa/Dx5 cells): 11.00
RR (A431B1) [2, 8]: 244.4

Structure (SMILES): COc1cc2ncnc(Nc3ccc(F)c(Cl)c3)c2cc1OCCCN1CCOCC1 [gefitinib]
Effect of ABCG2 expression on toxicity (A431-G2 vs parental A431) [3]: conferred resistance

Structure (SMILES): CC[C@@]1(O)C(=O)OCc2c1cc1n(c2=O)Cc2cc3c(CN(C)C)c(O)ccc3nc2-1 [topotecan]
Effect of ABCG2 expression on toxicity (A431-G2 vs parental A431) [3]: conferred resistance

Structure (SMILES): Cc1c(N)nc([C@H](CC(N)=O)NC[C@H](N)C(N)=O)nc1C(=O)N[C@H](C(=O)N[C@H](C)[C@@H](O)[C@H](C)C(=O)N[C@H](C(=O)NCCc1nc(-c2nc(C(=O)NCCC[S+](C)C)cs2)cs1)[C@@H](C)O)[C@@H](OC1OC(CO)C(O)C(O)C1OC1OC(CO)C(O)C(OC(N)=O)C1O)c1cnc[nH]1 (stereo partly drawn) [NSC-125066, Bleomycin]
IC50 (OATP2B1 [4]; read-out: IC50, inhibition of OATP2B1-mediated Cascade Blue (CB) uptake, CB 10 µM, 30 min, average ± SD): 64.2 ± 6.1 µM
IC50 (A431 cells; read-out: IC50 (µM) A431 eGFP, co-culture, co-culture with A431-2B1 mCh, 9 concentration points, at least 3 replicates): 7.47 µM
IC50 (A431 cells; read-out: IC50 (µM) A431 eGFP, monoculture, 9 concentration points, at least 3 replicates): 16.3 µM
SR (Mes-Sa/DX5) (Mes-Sa/Dx5 cells): 57.8
IC50 ([5]; read-out: IC50 (µM) A4312B1 mCh, co-culture, co-culture with A431 eGFP): 0.83 µM
IC50 ([5]; read-out: IC50 (µM) A4312B1 mCh, monoculture): 1.5 µM

Structure (SMILES): C/C=C1\NC(=O)[C@H]2CSSCC/C=C/[C@H](CC(=O)N[C@H](C(C)C)C(=O)N2)OC(=O)[C@H](C(C)C)NC1=O [NSC-754143, Romidepsin]
RR (Mes-Sa-B1) [1]: 331.70
RR (Dx5) (Mes-Sa/Dx5 cells): > 234.15
RR (A431B1) [2]: > 97
